This note sets out measurements from patent publication US20100216699A1, “SEMI-SYNTHETIC GLYCOPEPTIDES HAVING ANTIBACTERIAL ACTIVITY” (LEAD THERAPEUTICS, INC., priority 2009, published 2010).

Converted amounts (≈) assume the structure as drawn. Read-outs that look alike come from different tables or passages of the source. Bounds are passed on as bounds.

Usually MIC stands for the lowest concentration that inhibits growth of the organism.

What all share (assay type): cell-based
The subject of experiment [1] is Staphylococcus aureus 100 (MSSA). In words: MIC by broth microdilution, SA 100. Conditions: read-out: MIC SA 100. The source says:
(§1) As used herein, the term “minimum inhibitory concentration” (MIC) refers to the lowest concentration of an antibiotic that is needed to inhibit growth of a bacterial isolate in vitro. A common method for determining the MIC of an antibiotic is to prepare several tubes containing serial dilutions of the antibiotic, that are then inoculated with the bacterial isolate of interest.
(§2) Antibacterial activity in vitro is investigated by broth microdilution method in Meuller-Hinton broth as recommended by NCCLS. All strains tested are clinical isolates either sensitive or resistant to natural glycopeptides. MIC values were determined using the CLSI-recommended broth microdilution procedure (Clinical and Laboratoratory Standards Institute, Methods for Dilution Antimicrobial Susceptibility Tests for Bacteria That Grow Aerobically; Approved Standard-Seventh Edition.). Automated liquid handlers (Multidrop 384, Labsystems, Helsinki, Finland; Biomek 2000 and Multimek 96, Beckman Coulter, Fullerton Calif.) were used to conduct serial dilutions and liquid transfers.
For orientation: Broth dilution looks for growth in wells or tubes with falling amounts of substance.

In experiment [2] the test system is Staphylococcus aureus 757 (MRSA). Kind of experiment: MIC by broth microdilution, SA 757. Conditions: read-out: MIC SA 757.
Excerpt: as §1, §2

Experiment [3] deals with Staphylococcus aureus 2012 (VISA). Kind of experiment: MIC by broth microdilution, SA 2012. The conditions noted are these: read-out: MIC SA 2012.
Excerpt: as §1, §2

Experiment [4] relates to Staphylococcus epidermidis 835 (MSSE). In words: MIC by broth microdilution, SE 835. Conditions: read-out: MIC SE 835.
Excerpt: as §1, §2

In experiment [5] the test system is Staphylococcus epidermidis 831 (MRSE). In words: MIC by broth microdilution, SE 831. Conditions: read-out: MIC SE 831.
Excerpt: as §1, §2

In experiment [6] the test system is Enterococcus faecalis 101 (vancomycin sensitive). In words: MIC by broth microdilution, EFC 101. The conditions noted are these: read-out: MIC EFC 101.
Excerpt: as §1, §2

Experiment [7] has as its system Enterococcus faecalis 848 (VRE). Kind of experiment: MIC by broth microdilution, EFC 848. Conditions: read-out: MIC EFC 848.
Excerpt: as §1, §2

For experiment [8], the system named is Enterococcus faecium 750 (vancomycin sensitive). In words: MIC by broth microdilution, EFCM 750. Conditions: read-out: MIC EFCM 750.
Excerpt: as §1, §2

The subject of experiment [9] is Enterococcus faecium 752 (VRE). Kind of experiment: MIC by broth microdilution, EFCM 752. The conditions noted are these: read-out: MIC EFCM 752.
Excerpt: as §1, §2

Experiment [10] deals with Streptococcus pneumoniae 1195 (penicillin sensitive). Kind of experiment: MIC by broth microdilution, SPNE 1195. The conditions noted are these: read-out: MIC SPNE 1195.
Excerpt: as §1, §2

In experiment [11] the test system is Streptococcus pyogenes 712 (penicillin sensitive). Kind of experiment: MIC by broth microdilution, SPYO 712. Conditions: read-out: MIC SPYO 712.
Excerpt: as §1, §2

For `CCCCCCCCNC(=O)NC(=O)C[C@@H]1NC(=O)[C@H](NC(=O)[C@@H](CC(C)C)NC)[C@H](O)c2ccc(c(Cl)c2)Oc2cc3cc(c2O)Oc2ccc(cc2Cl)[C@@H](O)[C@H]2NC(=O)[C@H](NC(=O)[C@@H]3NC1=O)c1ccc(O)c(c1)-c1c(O)cc(O)cc1[C@@H](C(=O)NC1C3CC4CC(C3)CC1C4)NC2=O` (stereo partly shown) [Compound 23], the minimum inhibitory concentration (MIC) amounted to 2 µg/mL (≈ 1.4 µM) in experiment [1] (Staphylococcus aureus 100 (MSSA), clinical isolate, Mueller-Hinton broth); 2 µg/mL (≈ 1.4 µM) in experiment [2] (Staphylococcus aureus 757 (MRSA), clinical isolate, Mueller-Hinton broth); 2 µg/mL (≈ 1.4 µM) in [3] (Staphylococcus aureus 2012 (VISA), clinical isolate, Mueller-Hinton broth); 2 µg/mL (≈ 1.4 µM) in experiment [4] (Staphylococcus epidermidis 835 (MSSE), clinical isolate, Mueller-Hinton broth); 1 µg/mL (≈ 0.698 µM) in [5] (Staphylococcus epidermidis 831 (MRSE), clinical isolate, Mueller-Hinton broth); 2 µg/mL (≈ 1.4 µM) in [6] (Enterococcus faecalis 101 (vancomycin sensitive), clinical isolate, Mueller-Hinton broth). Besides, the minimum inhibitory concentration (MIC) in [7] (Enterococcus faecalis 848 (VRE), clinical isolate, Mueller-Hinton broth) came out at 2 µg/mL (≈ 1.4 µM); in experiment [8] (Enterococcus faecium 750 (vancomycin sensitive), clinical isolate, Mueller-Hinton broth), 1 µg/mL (≈ 0.698 µM); in experiment [9] (Enterococcus faecium 752 (VRE), clinical isolate, Mueller-Hinton broth) it was 2 µg/mL (≈ 1.4 µM); in [10] (Streptococcus pneumoniae 1195 (penicillin sensitive), clinical isolate, Mueller-Hinton broth), 0.5 µg/mL (≈ 0.349 µM); in experiment [11] (Streptococcus pyogenes 712 (penicillin sensitive), clinical isolate, Mueller-Hinton broth), 0.25 µg/mL (≈ 0.175 µM).

`CN[C@H](CC(C)C)C(=O)N[C@H]1C(=O)N[C@@H](CC(N)=O)C(=O)N[C@H]2C(=O)N[C@H]3C(=O)N[C@H](C(=O)N[C@H](C(=O)O)c4cc(O)cc(O)c4-c4cc3ccc4O)[C@H](O)c3ccc(c(Cl)c3)Oc3cc2cc(c3O[C@@H]2O[C@H](CO)[C@@H](O)[C@H](O)[C@H]2O[C@H]2C[C@](C)(N)[C@H](O)[C@H](C)O2)Oc2ccc(cc2Cl)[C@H]1O` [Vancomycin, vancomycin]: the MIC came to 1 µg/mL (≈ 0.69 µM) in [1] (Staphylococcus aureus, MSSA); 1 µg/mL (≈ 0.69 µM) in [2] (Staphylococcus aureus, MRSA); 8 µg/mL (≈ 5.52 µM) in experiment [3] (Staphylococcus aureus, VISA); 2 µg/mL (≈ 1.38 µM) in [4] (Staphylococcus epidermidis); 2 µg/mL (≈ 1.38 µM) in [5] (Staphylococcus epidermidis, MRSE); 2 µg/mL (≈ 1.38 µM) in [6] (Enterococcus faecalis). Also, the MIC in experiment [7] (Enterococcus faecalis, VRE) was > 64 µg/mL; in experiment [8] (Enterococcus faecium), 1 µg/mL (≈ 0.69 µM); in [9] (Enterococcus faecium, VRE) it was > 64 µg/mL; in experiment [10] (Streptococcus pneumoniae), 0.25 µg/mL (≈ 0.173 µM); in experiment [11] (Streptococcus pyogenes), 0.5 µg/mL (≈ 0.345 µM).
